Residues, ends and D or L forms follow the SMILES beside them. No end group written: not given here.
Columns and labels:
[1] = test system: guinea pig gel filtered platelets
Procedure: (§1) Human platelet-rich plasma (PRP) concentrate (Biological Specialties, Inc., Colmar, Pa.) was gel-filtered (Sepharose 2B, Pharmacia, Inc.) in Tyrode's buffer (140 mM NaCl, 2.7 mM KCl, 12 mM NaHCO3, 0.76 mM Na2HPO4, 5.5 mM dextrose, 5.0 mM Hepes, and 2 mg/ml BSA, pH 7.4). Guinea pigs (400–800 g) were anesthetized and blood drawn via an intraarterial catheter. PRP was prepared by centrifugation at 200×g for 10 min. Guinea pig PRP was gel-filtered as above. Gel-filtered platelets were diluted with Tyrode's buffer (143,000 platelets/μl, per well) and 2 mM CaCl2 in a 96-well microtiter plate. Platelet aggregation was initiated by the addition of the guinea pig PAR-4 AP (SFPGQA-NH2, SEQ ID No.:7) peptide. The assay plate was gently mixed constantly. Aggregation was monitored at 0 and 5 min after agonist addition in a microplate reader (Molecular Devices) by optical density at 650 nm (ΔSOFT). Aggregation was calculated as the decrease in optical density between the two measurements. All samples were tested in duplicate wells on the same plate.

[2] = test system: human gel filtered platelets; settings: for induction of human platelet aggregation / activation of human PAR-4 (in words): human platelets
Procedure: as §1

[3] = test system: guinea pig gel filtered platelets; settings: Nishikawa et al. (2000); cited from earlier work
[4] = test system: human gel filtered platelets; settings: background statement; cited from earlier work

With `C[C@H](NC(=O)[C@H](CCC(N)=O)NC(=O)CNC(=O)[C@@H]1CCCN1C(=O)[C@H](Cc1ccccc1)NC(=O)[C@@H](N)CO)C(N)=O` [guinea pig PAR-4 AP, SFPGQA-NH2] (H-SFPGQA-NH2; N-terminus assumed) the EC50 [1] was 174 ± 14.6 µM, the EC50 [2] was 140 ± 2.5 µM and the “induction of human platelet aggregation / activation of human PAR-4 (in words)” value [2] was “cross-activates human PAR-4”.
For GYPGKF-NH2 [murine PAR-4 AP], the “response of guinea pig platelets to activating peptide (literature)” value [3] is given as “do not respond”.
In the case of GYPGQV-NH2 [human PAR-4 AP], the “induction of human platelet aggregation / activation of human PAR-4 (in words)” value [2] is reported as “induced human platelet aggregation”.
For SFLLRN-NH2 [human PAR-1 AP], the “induction of guinea pig platelet aggregation / response of guinea pig PAR-4 (in words)” value ([1]; isolated guinea pig platelets) is given as “induced guinea pig platelet aggregation”, the “induction of human platelet aggregation / activation of human PAR-4 (in words)” value [2] is given as “induced human platelet aggregation” and the “aggregation of human platelets by exogenous activating peptide (background)” value [4] is given as “aggregation of human platelets can be reproduced”.

From patent US7179887B2, “Guinea pig proteinase-activated receptor 4 and its activating peptide” (Ortho-McNeil Pharmaceutical, Inc., priority 2001, dated 2007)
